These results are taken from patent US20090281114A1, “INDOLYLALKYL DERIVATIVES OF PYRIMIDINYLPIPERAZINE AND METABOLITES THEREOF FOR TREATMENT OF ANXIETY, DEPRESSION, AND SEXUAL DYSFUNCTION” (Fabre-Kramer Pharmaceuticals, Inc., priority 2008, published 2009).

One data set deals with 5-HT1D binding site. As to the kind of experiment: 5-HT1D binding site affinity (tritiated serotonin; method of Heuring and Peroutka with minor modifications). To be noted: in vitro. The method, then: Determination of 5-HT1D binding properties was accomplished employing methodology such as that described by Heuring and Peroutka, J. Neurosci., 7(3), 1987, 894-903; with only minor modifications. In vitro IC50 (nM) test values were determined for the compounds of this invention employing tritiated serotonin.

With `COc1cncnc1N1CCN(CCCc2c[nH]c3c(F)ccc(F)c23)CC1` [Example 75], the melting point (commonly the temperature, or range, at which the solid turns liquid) lay within 160 to 165 °C. Further, on 5-HT1D binding site, the 50% inhibitory concentration (IC50) (as a rule, the concentration needed to halve the response being measured) is 5.1 nM.
